Like-named read-outs stand apart in the source and are kept apart here.
Experiments:
physchem = conditions: water, pH 4.15
Description: (§1) Solutions containing vancomycin (1 mmol) and peptide (either 1 mmol or 2 mmol) in a total volume of 2 ml (pH 4.1-4.2) were placed in screw-capped test tubes and heated at 80° C. for 17 hr. At the end of the reaction time aliquots of the reaction mixture were analyzed for vancomycin and its degradation products, CDP-I-Major (CDP-I-M) and CDP-I-minor (CDP-I-m), by HPLC (Harris, Kopecka and Harris (1983), J. Am. Chem. Soc. 105: 6915-6922).

Staphylococcus = conditions: cited from earlier work
[1] = no additive, HPLC
Description: as §1

[2] = cited from earlier work
[3] = Peptide binding to vancomycin studied by UV spectroscopy
Text: when studied by UV spectroscopy. The binding constants for the other

Description for B. subtilis: The protection of antibiotic activity of vancomycin by binding peptide is illustrated by the following experiment. Solutions containing vancomycin (2 mmol) and peptide 4 mmol) in a total volume of 1 ml (pH 4.40) were placed in screw-capped test tubes and heated at 80° C. for 66 h. The residual antibiotic activity was measured by the disc diffusion technique with B. subtilis as the test organism (Coller and Gralnick (1977), J. Clinical Investigation 60: 302-312; Crossley, Rotschafer, Chern, Mead and Zaske (1980), Antimicrob. Agents and Chemother. 17: 654-657).
Vancomycin-peptide solutions were prepared as in the previous experiments and steam sterilized (15 psi) for 30 min. Antibiotic activity was measured as in Example II.

CN[C@H](CC(C)C)C(=O)N[C@H]1C(=O)N[C@@H](CC(N)=O)C(=O)N[C@H]2C(=O)N[C@H]3C(=O)N[C@H](C(=O)N[C@H](C(=O)O)c4cc(O)cc(O)c4-c4cc3ccc4O)[C@H](O)c3ccc(c(Cl)c3)Oc3cc2cc(c3O[C@@H]2O[C@H](CO)[C@@H](O)[C@H](O)[C@H]2O[C@H]2C[C@](C)(N)[C@H](O)[C@H](C)O2)Oc2ccc(cc2Cl)[C@H]1O [Vancomycin]
remaining at 17 h (physchem): 49%
effectiveness against Staphylococcus (Staphylococcus): particularly effective
% Activity (unheated) (B. subtilis; Table II, disc diffusion): 100%
% Activity (unheated) (B. subtilis; Table III, disc diffusion): 100%
% Activity (heated) (B. subtilis; heated 80° C. for 66 h, pH 4.40, disc diffusion): 25%
% Activity (steam sterilized) (B. subtilis; steam sterilized (15 psi) for 30 min, disc diffusion): 58%
% Vancomycin remaining (unheated control) [1]: 92%
storage stability in aqueous solution, refrigerated ([2]; refrigeration temperatures (viz. 5° C.)): can be stored for several weeks
potency and pH change in aqueous solution on storage ([2]; room temperature or prolonged storage under refrigeration): potency is lost and autogenous pH changes occur

CC(=O)N[C@H](C)C(=O)NCCC(=O)O [Ac--D-ala-β-ala]
measurable binding to vancomycin [3]: does not exhibit any measurable binding

Source: patent US4670258A, “Storable prepackaged aqueous solutions of vancomycin” (Vanderbilt University, priority 1984, dated 1987)
